# The source made the active and inactive calls. Cut-off read from the data, not from the text of the source, for most assays here: actives have a measured EC50 and inactives only a lower limit.
# Experiments:
# [1] = target: T1, Calpain-2 catalytic subunit (Sus scrofa, UniProt P43367); experiment: pig calpain II inhibitor potency, dose response, biochemical, fluorogenic peptide substrate (AID 1420); type: functional
# T1 sequence (P43367 whole entry): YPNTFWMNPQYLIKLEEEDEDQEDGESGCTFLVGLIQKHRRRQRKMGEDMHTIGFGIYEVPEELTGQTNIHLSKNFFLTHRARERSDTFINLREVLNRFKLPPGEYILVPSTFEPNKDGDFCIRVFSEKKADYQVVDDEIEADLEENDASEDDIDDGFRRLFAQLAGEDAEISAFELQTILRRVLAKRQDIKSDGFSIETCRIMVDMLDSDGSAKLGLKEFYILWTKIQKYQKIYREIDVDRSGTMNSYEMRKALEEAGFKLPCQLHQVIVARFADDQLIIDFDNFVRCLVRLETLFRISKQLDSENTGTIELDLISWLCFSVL
# [2] = microbe, parasite or virus in culture; type: functional; settings: Mycobacterium tuberculosis
# [3] = tested on: H9c2; experiment: cells; type: functional, cell-based; settings: Rattus norvegicus, H9c2, Myocardium;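 note: confirmatory concentration-response retest of ultra-high-throughput screening hits for modulation of myocardial damage; cell death induced by hydrogen peroxide oxidative stress; compound pretreatment for 60 min then peroxide exposure for 2 h; potency is for protecting the cells against peroxide damage rather than for killing them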
# [4] = target: Luciferin 4-monooxygenase (Photinus pyralis, UniProt P08659); experiment: firefly luciferase enzyme inhibitors, dose response, biochemical, luminescence (AID 1891)
# Luciferin 4-monooxygenase, sequence (P08659 whole entry): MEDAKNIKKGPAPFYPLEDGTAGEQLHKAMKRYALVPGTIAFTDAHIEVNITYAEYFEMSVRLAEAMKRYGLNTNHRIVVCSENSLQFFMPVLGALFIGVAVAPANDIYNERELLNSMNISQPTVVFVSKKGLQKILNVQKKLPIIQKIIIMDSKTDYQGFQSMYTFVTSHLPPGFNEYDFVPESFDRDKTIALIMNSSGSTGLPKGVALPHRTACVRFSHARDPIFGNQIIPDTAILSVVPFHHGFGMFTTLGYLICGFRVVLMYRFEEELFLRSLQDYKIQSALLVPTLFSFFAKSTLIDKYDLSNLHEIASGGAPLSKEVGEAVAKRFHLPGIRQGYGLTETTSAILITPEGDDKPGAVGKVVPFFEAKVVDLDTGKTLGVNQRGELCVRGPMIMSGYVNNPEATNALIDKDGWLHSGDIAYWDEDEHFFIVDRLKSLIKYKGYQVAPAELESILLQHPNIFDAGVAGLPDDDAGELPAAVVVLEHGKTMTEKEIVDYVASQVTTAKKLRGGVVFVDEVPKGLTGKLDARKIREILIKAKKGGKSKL
# [5] = Luminescence Cell-Based Dose Confirmation HTS to Identify Inhibitors of Platelet Dense Granule Release. [Related pubchem assays: 1663 (Primary HTS), 1678 (Summary of Project)]; type: functional
# [6] = NIH-3T3 fibroblast cytotoxicity, dose response, cytotoxicity control, cell-based, fluorescence, Alamar Blue, secondary assay (AID 2327); type: functional;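 note: NIH-3T3 mouse fibroblasts cultured with fluconazole at 8 µg/mL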
# [7] = C. albicans growth with fluconazole, confirmation, fluorescence, retest (AID 2467); type: functional, cell-based
# [8] = target: Cytochrome P450 2D6 (Homo sapiens, UniProt P10635);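 note: CYP2D6 member of a cytochrome P450 panel assay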
# Cytochrome P450 2D6, sequence (P10635 whole entry): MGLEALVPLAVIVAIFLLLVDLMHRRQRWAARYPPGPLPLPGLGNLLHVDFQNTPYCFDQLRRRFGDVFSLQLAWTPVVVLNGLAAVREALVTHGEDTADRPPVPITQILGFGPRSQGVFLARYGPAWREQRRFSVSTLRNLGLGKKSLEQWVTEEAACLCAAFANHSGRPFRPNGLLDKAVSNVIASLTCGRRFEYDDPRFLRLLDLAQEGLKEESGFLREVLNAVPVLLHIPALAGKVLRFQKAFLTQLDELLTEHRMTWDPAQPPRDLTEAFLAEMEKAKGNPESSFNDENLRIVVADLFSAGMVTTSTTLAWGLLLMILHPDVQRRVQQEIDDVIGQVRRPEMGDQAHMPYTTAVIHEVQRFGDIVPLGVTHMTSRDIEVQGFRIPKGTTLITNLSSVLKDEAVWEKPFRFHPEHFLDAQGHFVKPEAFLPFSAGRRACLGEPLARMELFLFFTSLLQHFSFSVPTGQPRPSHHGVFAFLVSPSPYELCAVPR
# [9] = target: Cytochrome P450 3A4 (Homo sapiens, UniProt P08684);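 note: CYP3A4 tested as one member of a cytochrome P450 panel screen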
# Cytochrome P450 3A4, sequence (P08684 whole entry): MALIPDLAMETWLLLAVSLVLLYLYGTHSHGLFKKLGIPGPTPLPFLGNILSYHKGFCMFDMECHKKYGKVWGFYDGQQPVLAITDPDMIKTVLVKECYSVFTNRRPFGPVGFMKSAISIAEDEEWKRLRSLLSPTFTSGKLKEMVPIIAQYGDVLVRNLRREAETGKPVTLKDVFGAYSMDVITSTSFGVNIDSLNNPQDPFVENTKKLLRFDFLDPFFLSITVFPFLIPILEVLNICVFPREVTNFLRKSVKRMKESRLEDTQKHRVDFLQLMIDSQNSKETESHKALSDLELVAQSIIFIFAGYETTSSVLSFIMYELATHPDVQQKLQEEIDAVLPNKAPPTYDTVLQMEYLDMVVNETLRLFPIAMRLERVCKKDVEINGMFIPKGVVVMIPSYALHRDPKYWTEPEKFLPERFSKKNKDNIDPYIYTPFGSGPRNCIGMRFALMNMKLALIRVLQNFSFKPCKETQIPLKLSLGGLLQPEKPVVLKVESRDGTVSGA
# [10] = target: FAD-linked sulfhydryl oxidase ALR (Homo sapiens, UniProt P55789); experiment: inhibitors of human ALR sulfhydryl oxidase, dose response, biochemical, H2O2 detection, luminescence, cherry-pick (AID 493248)
# FAD-linked sulfhydryl oxidase ALR, sequence (P55789 whole entry): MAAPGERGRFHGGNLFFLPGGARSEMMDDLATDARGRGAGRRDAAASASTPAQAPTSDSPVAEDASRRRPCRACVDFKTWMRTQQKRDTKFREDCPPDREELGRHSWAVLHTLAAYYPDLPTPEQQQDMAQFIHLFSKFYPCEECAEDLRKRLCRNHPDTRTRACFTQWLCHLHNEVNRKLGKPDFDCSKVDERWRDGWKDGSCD
# [11] = tested on: BJ; experiment: cytotoxicity toward BJ-TERT fibroblasts, dose response, cell-based, RAS-independent, luminescence (AID 1933); type: functional; settings: Homo sapiens
# [12] = tested on: BJ; experiment: cells; type: functional, cell-based; settings: Homo sapiens
# [13] = tested on: BJ; experiment: cytotoxicity toward BJ-TERT-LT-ST fibroblasts, dose response, cell-based, RAS-independent, luminescence (AID 1935); type: functional; settings: Homo sapiens;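 note: BJ fibroblasts immortalized with TERT plus LT and ST oncogenes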
# [14] = cytotoxicity toward DRD oncogenic fibroblasts, dose response, cell-based, non-viral oncogenic, luminescence (AID 1934); type: functional; settings: Homo sapiens
# [15] = HEp-2 cell cytotoxicity, dose response, cytotoxicity control for RSV inhibitor project, HTS (AID 2410); type: functional; settings: human respiratory syncytial virus
# [16] = target: T2, RNA-binding protein pos-1 (Caenorhabditis elegans, UniProt G5EF15); experiment: inhibitors of POS-1/mex-3 RNA binding, dose response, biochemical, fluorescence polarization (AID 1964);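 note: purified POS-1 fused to maltose binding protein made in E. coli; potency of compounds blocking POS-1 binding to fluorescent RNA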
# T2 sequence (G5EF15 whole entry): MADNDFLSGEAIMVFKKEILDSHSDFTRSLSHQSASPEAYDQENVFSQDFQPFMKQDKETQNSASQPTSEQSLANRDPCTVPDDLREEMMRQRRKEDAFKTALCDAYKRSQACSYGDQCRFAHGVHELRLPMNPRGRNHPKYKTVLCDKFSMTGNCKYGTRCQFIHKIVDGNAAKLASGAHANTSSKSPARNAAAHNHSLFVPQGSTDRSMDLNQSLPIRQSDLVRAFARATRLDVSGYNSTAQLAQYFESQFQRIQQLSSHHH
# [17] = target: T3, Zinc finger protein mex-5 (Caenorhabditis elegans, UniProt Q9XUB2); experiment: MEX-5/TCR-2 RNA interaction inhibitors, dose response, biochemical, C. elegans, fluorescence polarization (AID 1960)
# T3 sequence (Q9XUB2 whole entry): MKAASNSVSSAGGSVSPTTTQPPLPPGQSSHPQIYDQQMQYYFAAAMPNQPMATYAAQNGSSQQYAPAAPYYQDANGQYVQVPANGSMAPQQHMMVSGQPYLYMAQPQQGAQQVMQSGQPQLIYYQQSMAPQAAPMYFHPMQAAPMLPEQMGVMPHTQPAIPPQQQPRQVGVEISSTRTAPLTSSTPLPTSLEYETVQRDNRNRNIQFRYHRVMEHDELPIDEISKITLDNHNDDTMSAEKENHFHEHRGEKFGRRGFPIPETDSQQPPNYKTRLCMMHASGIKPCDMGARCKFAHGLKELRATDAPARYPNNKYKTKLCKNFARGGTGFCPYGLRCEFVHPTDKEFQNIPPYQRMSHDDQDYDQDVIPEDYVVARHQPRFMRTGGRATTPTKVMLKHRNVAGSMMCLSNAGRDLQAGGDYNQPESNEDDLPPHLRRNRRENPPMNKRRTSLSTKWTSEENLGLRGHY
# [18] = inhibitors of intracellular T. cruzi replication, confirmation, NIH3T3 host cells, beta-gal luminescence (AID 2044); type: functional, cell-based;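 note: intracellular parasites grown in NIH/3T3 mouse fibroblasts as host cells; luminescent beta-galactosidase reporter signal from transgenic T. cruzi replicating inside host cells; inhibitors lower the luminescence signal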
# [19] = cytotoxicity toward NIH3T3 fibroblasts, dose response, counter-screen, cell-based, ATP luminescence, mouse fibroblasts (AID 2010); type: functional;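 note: cells exposed to compound for about 90 hours before reading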
# [20] = target: Cytochrome P450 2C9 (Homo sapiens, UniProt P11712)
# Cytochrome P450 2C9, sequence (P11712 whole entry): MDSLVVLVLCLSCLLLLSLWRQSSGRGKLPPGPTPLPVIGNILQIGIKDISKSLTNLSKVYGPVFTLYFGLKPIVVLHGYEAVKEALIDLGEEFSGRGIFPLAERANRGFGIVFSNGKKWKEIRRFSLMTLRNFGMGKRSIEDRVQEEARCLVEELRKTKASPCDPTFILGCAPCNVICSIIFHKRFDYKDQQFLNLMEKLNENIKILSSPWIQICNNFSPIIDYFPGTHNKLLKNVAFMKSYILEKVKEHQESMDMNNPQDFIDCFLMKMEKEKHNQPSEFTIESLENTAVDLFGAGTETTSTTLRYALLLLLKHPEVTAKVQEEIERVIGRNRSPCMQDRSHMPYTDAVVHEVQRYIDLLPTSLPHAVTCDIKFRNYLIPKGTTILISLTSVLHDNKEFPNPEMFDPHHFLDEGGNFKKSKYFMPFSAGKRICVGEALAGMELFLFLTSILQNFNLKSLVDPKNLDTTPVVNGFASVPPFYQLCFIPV
# [21] = tested on: INS1; experiment: beta cell apoptosis inhibitors, cytokine rescue, dose response, luminescence, retest (AID 449756); type: functional, cell-based; settings: Rattus norvegicus;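 note: cell death triggered by IL-1 beta plus TNF-alpha plus IFN-gamma mixture; protective hits raise ATP signal compared with cytokine alone wells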
smiles,measurement,setting,value
Cc1ccc(C(C)C)c(OCCN=C(S)Nc2cccc3ccccc23)c1,IC50,[1],6.63 µM (not active)
CC(C)(C)N1C(=O)NC(=O)/C(=C/Nc2ccc3c(c2)CCC3)C1=O,CC50,[2],> 40 µM (active)
COc1ccc(COc2cc(-c3cccc(OC)c3)nc3ccc(NC(=O)c4ccc(OC)cc4)cc23)cc1,CC50,[2],15.8 µM (active)
same,IC50,[3],> 79 µM (inactive)
Cc1c(C2Nc3ccccc3C(=O)N2O)cnn1C (configuration not stated),IC50,[3],> 79 µM (inactive)
CCOc1cc2[nH]c(=S)n(CCC(=O)NCc3ccco3)c(=O)c2cc1OCC,EC50,[4],> 112 µM (not active)
same,EC50,[5],> 112 µM (not active)
Cc1ccc(C(=O)c2oc3nc(C)cc(C)c3c2N)cc1,EC50,[6],> 160 µM (inactive)
same,EC50,[7],> 38 µM (not active)
same,AC50,[8],10 µM (inconclusive)
same,AC50,[9],0.891 µM (inconclusive)
Cc1ccc2nc(O)c3cc(C(=O)N(C)c4ccc(C)c(C)c4)sc3c2c1,EC50,[4],> 112 µM (not active)
same,EC50,[5],> 112 µM (not active)
Cc1ccc(NC(=O)c2[nH]cnc2C(=O)NCCCCCNC(=O)OC(C)(C)C)cc1,IC50,[3],> 79 µM (inactive)
CCOC(=O)c1c(N)sc(C(=O)N2CCCCCC2)c1C,IC50,[1],> 50 µM (not active)
COc1cc(NC(=O)CN2c3ccccc3CC2C)cc(OC)c1OC (configuration not stated),AC50,[10],0.394 µM (active)
C=CC[C@@H](CC(=O)N[C@H](CO)Cc1ccccc1)C(=O)N[C@@H](COC(=O)[C@@H](CC=C)CC(=O)OC(C)(C)C)Cc1ccccc1,IC50,[3],12.1 µM (active)
CC(C)c1cc(NC(=O)CCl)on1,EC50,[11],> 150 µM (not active)
same,EC50,[12],> 150 µM (not active)
same,EC50,[13],> 150 µM (not active)
same,EC50,[14],> 150 µM (inconclusive)
Cc1cc2ccccc2nc1SCC(=O)N1c2ccccc2CC1C (configuration not stated),EC50,[4],> 112 µM (not active)
same,EC50,[5],11.9 µM (active)
COc1ccc(OC)c(NC(=O)CSc2nc(N)c(-c3ccccc3)c(O)n2)c1,EC50,[4],> 112 µM (not active)
same,EC50,[5],> 112 µM (not active)
C/C(=N\Nc1ccc([N+](=O)[O-])cc1)c1cccc(N)c1,CC50,[15],22 µM (active)
same,AC50,[10],0.14 µM (active)
same,AC50,[8],17.8 µM (inconclusive)
Cc1nnc(SCC(=O)N/N=C/c2cn(-c3ccccc3)nc2-c2ccccc2)n1-c1ccccc1,IC50,[3],> 79 µM (inactive)
CC(=O)O/N=C1\C(=O)N(Cc2ccc(C)cc2)c2ccccc21,IC50,[1],15.5 µM (not active)
Cc1cc(Cl)ccc1NNC(=O)CCc1ccccc1,CC50,[2],> 40 µM (active)
CCN(CC)C(=O)CSc1nnc(-c2cc(OC)cc(OC)c2)o1,IC50,[1],> 50 µM (not active)
Cc1ccc(/C=C/C(=O)O)cc1S(=O)(=O)N1CCCCC1,EC50,[16],> 300 µM (not active)
same,EC50,[17],> 300 µM (not active)
same,EC50,[4],> 112 µM (not active)
same,EC50,[5],> 112 µM (not active)
C[C@@H](OC(=O)c1[nH]cnc1C(=O)NCc1ccc(CNC(=O)OC(C)(C)C)cc1)c1ccccc1,IC50,[3],> 79 µM (inactive)
Cn1c(CN2CCCC2)nc2cc(NC(=O)COc3ccccc3)ccc21,EC50,[4],> 112 µM (not active)
same,EC50,[5],> 112 µM (not active)
Cc1[nH]c2ccccc2c1CCN(Cc1cccnc1)C(S)=Nc1cccc(F)c1,EC50,[18],0.698 µM (active)
same,IC50,[1],44.4 µM (not active)
same,EC50,[19],> 60 µM (not active)
CC(=O)c1ccc(-c2ccc(C(=O)N3CCN(c4ccc(F)cc4)CC3)o2)cc1,IC50,[1],6.42 µM (not active)
O=C1N[C@H](Cc2c[nH]c3ccccc23)COC(=O)[C@H](Cc2ccc(F)cc2)C/C=C\C[C@H]1CC(=O)N(CCO)Cc1ccccc1,IC50,[3],> 79 µM (inactive)
COC(=O)c1c(NC(=O)CC2Nc3ccccc3NC2=O)sc(C)c1C (configuration not stated),EC50,[16],> 300 µM (not active)
same,EC50,[17],> 300 µM (inconclusive)
same,AC50,[8],25.1 µM (inconclusive)
same,AC50,[20],17.8 µM (inconclusive)
Cn1c2[n+](c3ccc(Cl)cc3c1=O)Cc1ccccc1-2,EC50,[4],> 112 µM (not active)
same,EC50,[5],> 112 µM (not active)
Cc1ccc(C)c(NS(=O)(=O)c2ccc(OCC(=O)NCc3cccnc3)cc2)c1,EC50,[11],> 150 µM (not active)
same,EC50,[12],18.1 µM (active)
same,EC50,[13],> 150 µM (inconclusive)
same,EC50,[14],> 150 µM (not active)
same,AC50,[21],8.78 µM (active)
O=C(c1ccc(C[S+]([O-])Cc2ccc(Cl)cc2)o1)N1CCN(c2ccccc2)CC1 (configuration not stated),AC50,[10],> 100 µM (inactive)
Cc1ccc(C(=O)O)cc1-n1c(C)cc(C=O)c1C,EC50,[16],> 300 µM (not active)
same,EC50,[17],> 300 µM (not active)
COc1cc(C(=O)N/N=C/c2sc(N3CCOCC3)nc2-c2ccccc2)cc(OC)c1OC,IC50,[3],9.3 µM (active)
CN(CC(=O)Nc1c(Cl)cccc1Cl)C(=O)Cn1[nH]c(=O)c2ccccc2c1=O,IC50,[3],> 79 µM (inactive)
N#CC1=C(N)Oc2cc(N)ccc2C1c1ccc(F)cc1 (configuration not stated),AC50,[10],2.78 µM (active)
CN(C)c1ccc(-c2nc(O)c3ccccc3n2)cc1,EC50,[4],8.02 µM (active)
same,EC50,[5],33.4 µM (active)
O=C(CCc1nc(O)c2ccccc2n1)N1CCN(S(=O)(=O)c2cc(Cl)ccc2Cl)CC1,IC50,[3],> 79 µM (inactive)
CCOc1cc(NC(=O)CCl)c(OCC)cc1NC(C)=O,CC50,[2],25.5 µM (active)
Cc1cc(/C=C2\SC(Nc3ccc(F)cc3)=NC2=O)c(C)n1-c1ccc(S(N)(=O)=O)cc1,CC50,[2],12 µM (active)
COc1cc(OC)c(C2C(C#N)=C(N)OC3=C2C(=O)CC(C)C3)cc1OC (configuration not stated),EC50,[16],> 300 µM (not active)
same,EC50,[17],> 300 µM (not active)
COc1ccc(N2CCN(C(=O)c3ccc(C)cc3Cl)CC2)cc1,AC50,[10],3.97 µM (active)
CN(C)c1ccnc(Oc2ccc(C(C)(C)C)cc2)c1C#N,IC50,[1],4.48 µM (not active)
COc1ccc(/C=N/NC(=O)CCc2c(C)n[nH]c2C)cc1O,AC50,[10],3.71 µM (active)
O=C(O)c1ccccc1-n1c2ccccc2c2ccccc21,EC50,[16],> 300 µM (not active)
same,EC50,[17],> 300 µM (not active)
CCCC1=Nc2cc(C(=O)N3CCC(C(=O)OCC)CC3)ccc2Sc2ccccc21,EC50,[11],> 150 µM (not active)
same,EC50,[12],> 150 µM (not active)
same,EC50,[13],> 150 µM (not active)
same,EC50,[14],126 µM (active)
CCOCCCn1/c(=N/C(=O)c2cccs2)c(C#N)cc2c(=O)n3cccc(C)c3nc21,EC50,[16],> 300 µM (not active)
same,EC50,[17],> 150 µM (not active)
CCCCOC(=O)c1ccc(N=Nc2c(O)nc(O)c(C#N)c2C)cc1,EC50,[16],> 300 µM (not active)
same,EC50,[17],> 300 µM (inconclusive)
same,EC50,[4],> 112 µM (not active)
same,EC50,[5],> 112 µM (not active)
COc1ccc(C(C(=O)NC2CCCC2)N(C(=O)c2snc(C(N)=O)c2N)c2cccc(O)c2)cc1 (configuration not stated),IC50,[3],> 79 µM (inactive)
CC(C)(O)[C@H]1O[C@H]2CC[C@@]3(C)[C@@](O)(CC[C@H]4Cc5c([nH]c6ccccc56)[C@@]43C)C2=CC1=O [PAXILLINE],EC50,[16],16.7 µM (active)
same,EC50,[17],12.3 µM (active)
same,CC50,[2],> 40 µM (active)

# Source: ChEMBL document CHEMBL1201862, “PubChem BioAssay data set” (2004)
